Test results published in publication PMC10590756, “Glutarate regulates T cell metabolism and anti-tumour immunity” (Nature Metabolism, 2023).

How the values were obtained:
[1] = tested on: protein glutarylation in human CD8^+ T cells; experiment: Pan-lysine glutarylation western blot; assay type: cell-based
Experimental: We determined this first by undertaking whole-protein lysate western blot analyses with a pan-lysine glutarylation (K-glutarylation) antibody[36],[38]. […] Glutarylation patterns were also altered when cells were exposed to different oxygen tensions (Fig. 3c and Extended Data Fig. 3a) and when treated with DEG (Fig. 3d and Extended Data Fig. 3b). […] Since, as shown in Extended Data Fig. 1g, DEG is converted within 15 min to glutarate intracellularly, it is likely that the DEG-induced glutarylation observed after 30 min of DEG treatment is a direct result of increases in intracellular glutarate.
Cell pellets were lysed by either urea-Tris buffer (8 M urea, 50 mM Tris-HCl (pH 7.5), 150 mM β-mercaptoethanol), sonicated twice for 45 s intercalated with 1 min incubation on ice and centrifuged at 14,000g, 4 °C for 15 min or by RIPA Lysis and Extraction Buffer (catalogue no. 89900, Thermo Fisher Scientific), according to the manufacturer’s instructions. Nuclear and cytosolic fractions were prepared from cells using the NE-PER kit (catalogue no. 78833, Thermo Fisher Scientific). Histones were extracted with the Histone Extraction Kit (catalogue no. ab113476, Abcam). Proteins were separated by SDS–PAGE and transferred to polyvinylidene fluoride (PVDF) membranes. Total protein stain was obtained using non-stain protein labelling reagent (catalogue no. A44448, Thermo Fisher Scientific). […]

human CD8^+ T cells = experiment: Glucose uptake assay; assay type: cell-based; conditions: 500 µM DEG, acute and chronic
Experimental: Glucose uptake was determined using a Glucose Uptake Assay Kit (catalogue no. J1341, Promega Corporation). The assay was performed according to the manufacturer’s instructions. Data were acquired on the FLUOstar Omega.

[2] = biological target: T1, human full-length HIF-P4H-1 (Homo sapiens, UniProt Q96KS0); experiment: Cell-free HIF-P4H-1 activity assay (^14CO2 release); assay type: biochemical
T1 construct: The human full-length HIF-P4H-1 and KDM6A enzymes were recombinantly produced using Sf21 insect cells; made in house; host or cells: Sf21 insect cells (baculovirus)
T1 sequence (Q96KS0 whole entry): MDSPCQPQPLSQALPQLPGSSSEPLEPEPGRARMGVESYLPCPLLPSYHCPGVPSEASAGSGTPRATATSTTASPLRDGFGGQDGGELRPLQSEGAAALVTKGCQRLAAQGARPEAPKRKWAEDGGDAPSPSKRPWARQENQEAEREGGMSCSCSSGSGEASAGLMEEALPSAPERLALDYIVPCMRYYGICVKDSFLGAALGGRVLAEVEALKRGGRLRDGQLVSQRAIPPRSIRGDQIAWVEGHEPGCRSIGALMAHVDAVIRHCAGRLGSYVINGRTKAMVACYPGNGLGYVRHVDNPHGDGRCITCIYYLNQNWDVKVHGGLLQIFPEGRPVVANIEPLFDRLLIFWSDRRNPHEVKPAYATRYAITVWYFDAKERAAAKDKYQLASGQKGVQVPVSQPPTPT
Text: The human full-length HIF-P4H-1 and KDM6A enzymes were recombinantly produced using Sf21 insect cells and the enzymes were purified with anti-FLAG M2 affinity gel as described previously[68],[69]. Briefly, the C terminus FLAG-tagged human HIF-P4H1-2 and KDM6A were generated using PCR and subcloned into pAcG3X and pVL1393 baculovirus expression vectors, respectively. The recombinant baculoviruses were generated by transducing the bacmid DNA into Spodoptera frugiperda Sf9 cells using BaculoGold DNA (HIF-P4H1-2, BD Biosciences) and BacMagic-3 DNA kit (for KDM6A, Novagen). Recombinant proteins were produced by infecting Sf21 insect cells with the corresponding amplified baculoviruses for 72 h at 27 °C. Cells were homogenized in a buffer containing 10 mM Tris, 150 mM NaCl, 100 mM glycine, 0.1% (v/v) Triton X-100, pH 7.8, and a protease inhibitor cocktail tablet without EDTA. The cell lysates were centrifuged at 21,000g for 30 min; the soluble fractions containing the FLAG-tagged proteins were affinity-purified using the anti-FLAG M2 affinity gel (Sigma-Aldrich). […] Protein concentration was measured with NanoDrop and proteins were analysed by SDS–PAGE followed by Coomassie brilliant blue staining. […] The IC50 value of the glutarate analogue was calculated from the inhibition saturation curves.

SMILES | time of culture with DEG after which shifts in glutarylation could be detected ([1]; 500 µM DEG) [min] | glutarylation patterns ([1]; increasing concentrations of DEG, 7 days) | rate of glucose uptake (human CD8^+ T cells) | IC50 [2] [µM]
CCOC(=O)CCCC(=O)OCC [DEG, Diethyl glutarate] | 30 | altered | no changes | 
O=C(O)CCCC(=O)O [glutarate, glutaric acid] |  |  |  | 2000
